Results on eleven compounds are retold here after article PMC6627197, “Development of a High Throughput Screen for the Identification of Inhibitors of Peptidoglycan O-Acetyltransferases, New Potential Antibacterial Targets” (Antibiotics, 2019).

The target of series [1] is T1, SaOatA (Staphylococcus aureus, UniProt Q2FV54).
T1 sequence (Q2FV54 435-603): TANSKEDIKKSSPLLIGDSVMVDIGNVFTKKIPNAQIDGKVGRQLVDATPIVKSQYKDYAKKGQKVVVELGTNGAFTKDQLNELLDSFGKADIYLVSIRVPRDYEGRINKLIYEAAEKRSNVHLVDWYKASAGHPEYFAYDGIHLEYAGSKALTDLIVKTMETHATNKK
As to conditions: cited from earlier work.

Series [2] can be described thus: Solubility limit in growth assays.
For series [3], the target named is T1, SaOatA. Nature of the series: biochemical. As to conditions: for activity at 10 µM: pH 7, read-out: SaOatA 4MU-Ac 1° Screen (% RA).
Series [4] has as its target T1, SaOatA. As to the kind of experiment: SaOatA esterase inhibition, chromogenic assay with pNP-Ac as substrate. In kind it is biochemical. The protocol:
(§1) With fluorometric assays, fluorescence quenching by compounds in the libraries could lead to their false identification as inhibitors. Thus, to confirm their inhibitory activity, we also tested esculin, esculetin, and scopoletin as inhibitors of PatBΔ69 and SaOatAΔ435 esterase activity using the chromogenic pNP-Ac as substrate. […] .
(§2) Hits which were seen to affect NgPatBΔ100 esterase activity in a dose dependent manner were also tested as inhibitors of the enzyme (0.75 µM, final concentration) using 2 mM pNP-Ac as substrate to identify false positives, due to fluorescence quenching under similar assay conditions. Similarly, hits which were seen to affect SaOatAΔ445 esterase activity in a dose dependent manner were also tested as inhibitors of the enzyme at 1.5 µM (final concentration) using 1.1 mM pNP-Ac.

The target in series [5] is T2, NgPatB (Neisseria gonorrhoeae, UniProt Q5F966). Nature of the series: NgPatB esterase inhibition, chromogenic assay with pNP-Ac as substrate. In kind it is biochemical. The protocol:
as §1, §2

The target of series [6] is T2, NgPatB. Nature of the series: NgPatB esterase inhibition, fluorometric assay with 4MU-Ac as substrate (HTS, dose response, Ki). In kind it is biochemical. The conditions noted are these: for Mode of inhibition of NgPatB: 4MU-Ac as substrate, double reciprocal plot; for activity at 10 µM: pH 7, read-out: NgPatB 4MU-Ac 1° Screen (% RA).
Experimental: Determinations of Ki and mode of inhibition of NgPatBΔ100 were conducted using 4MU-Ac as a substrate. […] Initial velocities of substrate hydrolysis were obtained by fluorescence emission at 420 nm (390 nm excitation).
A large scale HTS was conducted at the SPARC BioCentre Drug Discovery Facility (The Hospital for Sick Children, Toronto, Canada) to identify additional inhibitors of PatBΔ100 acetylesterase activity. A total of 68,928 compounds were tested in singlicate, including 14,400 from the Maybridge HitFinder Collection, 50,000 from the ChemBridge DIVERset Collection, and 4,480 compounds representing plates 1–15 of the GlycoNET ChemBridge Collection maintained at the facility. The 4MU-Ac served as the substrate in the 384-well microtiter plate (NUNC 262260) fluorescent assay described above. The assay was optimized for use with this facility by altering enzyme and substrate concentrations, in addition to incubation times and reaction volume. As for the pilot screen, a Z’ for the assay was determined using Equation (1). […] This was followed by dispensing final concentrations of 20 µM compounds from the Maybridge HitFinder and ChemBridge DIVERset Collections or 10 µM compounds from the GlycoNET ChemBridge Collection using an Echo® 550 acoustic dispenser (Labcyte).
For series [7], the target named is T2, NgPatB. In kind it is biochemical. The conditions noted are these: 3 µM enzyme, pH 7.0.
Series [8] addresses SaOatA (Staphylococcus aureus, UniProt Q2FV54). The format is biochemical. As to conditions: variant SaOatA445 (SaOatAΔ445), 5 µM enzyme, pH 6.5.
The next series has as its system E. coli BL21. As to the kind of experiment: Microtiter plate growth / MIC assay, E. coli (negative control organism). The conditions noted are these: for Effect on growth of E. coli: within solubility limits.
The subject of another series is S. aureus ATCC 6538. Nature of the series: Microtiter plate growth / MIC assay, S. aureus. The conditions noted are these: Staphylococcus aureus, ATCC6538, read-out: Growth of S. aureus ATCC 6538, % of control growth level reached.
A further series concerns N. gonorrhoeae FA1090. As to the kind of experiment: Microtiter plate growth / MIC assay, N. gonorrhoeae.
For series [9], the target named is T1, SaOatA. The conditions noted are these: 10 µM.
Setting [10] is: read-out: SaOatA 4MU-Ac IC50, 4MU-Ac as substrate, values marked 2 in Table 1.
[11] abbreviates: listed as benzothiazolyl-pyrazolo-pyridine.

Values after ≈ are worked out from the molar mass of the structure shown. “Also recorded” adds a separate entry of the source. Where two headings read alike, the source gives them in different places.

T2 sequence (Q5F966 entry or part of it): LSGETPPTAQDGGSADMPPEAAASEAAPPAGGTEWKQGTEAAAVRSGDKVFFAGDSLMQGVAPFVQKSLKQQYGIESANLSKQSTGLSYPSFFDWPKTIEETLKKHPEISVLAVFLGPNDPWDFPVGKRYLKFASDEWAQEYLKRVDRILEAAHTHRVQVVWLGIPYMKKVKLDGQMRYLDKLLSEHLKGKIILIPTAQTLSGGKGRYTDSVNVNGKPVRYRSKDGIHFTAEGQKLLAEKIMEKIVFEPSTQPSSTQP

Consider `O=c1ccc2cc(O[C@@H]3O[C@H](CO)[C@@H](O)[C@H](O)[C@H]3O)c(O)cc2o1` [Esculin], for which the IC50 on SaOatA [1] (setting [10]) is 75.8 ± 1 µM; on SaOatA [4], 1350 ± 150 µM; against NgPatB [5] it was 923 ± 9 µM; on NgPatB [6], 49.7 ± 3 µM. The compound also came in with a solubility in series [2] of 2050 µg/mL (≈ 6020 µM). Also, the remaining activity at 10 µM on SaOatA [3] (read-out: SaOatA 4MU-Ac 1° Screen (% RA)) was found to be 47.8%; at NgPatB [6] (read-out: NgPatB 4MU-Ac 1° Screen (% RA)), 38.4%.

On to `CC(=O)Oc1ccc([N+](=O)[O-])cc1` [pNP-Ac, p-nitrophenyl acetate], for which the Km on NgPatB [7] (variant NgPatB69 (NgPatBΔ69)) is 1770 µM; on NgPatB [7] (variant NgPatB100 (NgPatBΔ100)), 2060 µM; at SaOatA [8] it was 1140 µM. Moreover, the kcat on NgPatB [7] (variant NgPatB69 (NgPatBΔ69)) worked out at 0.14 sec‐1; on NgPatB [7] (variant NgPatB100 (NgPatBΔ100)) it was 0.44 sec‐1; on SaOatA [8], 0.047 sec‐1.

In the case of `O=c1ccc2cc(O)c(O)cc2o1` [Esculetin], the IC50 at SaOatA [1] (setting [10]) was 106 ± 1.2 µM; at SaOatA [4] it was 600 ± 140 µM; at NgPatB [5], 853 ± 79 µM; against NgPatB [6], 53.1 ± 1 µM. In addition, the minimal inhibitory concentration (MIC) with E. coli BL21 (Escherichia coli, BL21, read-out: MIC, E. coli BL21) stood at 512 µg/mL (≈ 2870 µM). Also, the activity at 512 µg/mL turned out to be 10% in the series on S. aureus ATCC 6538 and 25% in the series with N. gonorrhoeae FA1090 (Neisseria gonorrhoeae, FA1090, read-out: Growth of N. gonorrhoeae FA1090, % of control growth level reached). For the same compound, the activity at 10 µM is 71% on SaOatA [3] and 55.7% on NgPatB [6]. On NgPatB [6], the Ki worked out at 86.7 ± 4.7 µM. For the same compound, the “Mode of inhibition of NgPatB” value at NgPatB [6] was “competitive inhibitor”.

Consider `COc1cc2ccc(=O)oc2cc1O` [Scopoletin], for which the half-maximal inhibitory concentration (IC50) at SaOatA [1] (setting [10]) was 103 ± 1.1 µM; against SaOatA [4], 1170 ± 100 µM; on NgPatB [5] it was 792 ± 7 µM; at NgPatB [6], 47.9 ± 4 µM. This compound also gave a solubility in series [2] of 480 µg/mL (≈ 2500 µM). The results for the activity at 10 µM at SaOatA [3] and on NgPatB [6] were 21.4% and 30%, respectively.

Regarding `Cc1cc(=O)oc2cc(O)c(O)cc12` [4-Me-esculetin], the activity at 10 µM came out at 98.3% at SaOatA [3] and 92% on NgPatB [6].

Turning to `COc1cc2oc(=O)ccc2cc1O` [Isoscopoletin], the activity at 10 µM was determined as 115% at SaOatA [3] and 53.5% at NgPatB [6].

Regarding `O=C1c2ccccc2C(=O)c2c(O)c(O)cc(O)c21` [purpurin, 1,2,4-trihydroxy-anthraquinone, reference compound], the IC50 on SaOatA [1] (read-out: IC50 for SaOatA, earlier preliminary characterization) was roughly 1100 µM. Also, the “Identified in pilot HTS as inhibitor of SaOatA” value on SaOatA [9] was “not identified”. For the same compound, the “Identified in pilot HTS as inhibitor of NgPatB” value on NgPatB [6] (pilot HTS, 10 µM) is “not identified”.

Regarding `Cc1cc(=O)oc2cc(O)ccc12` [Hymercrome, 7-hydroxy-4-methyl-coumarin, reference compound], the IC50 at SaOatA [3] is greater than 3000 µM; against SaOatA [4] it was greater than 3000 µM; against NgPatB [5], greater than 3000 µM; at NgPatB [6], 615 ± 10 µM. Besides, the values for the activity at 10 µM on SaOatA [3] and on NgPatB [6] were 67.8% and 42.9%, respectively.

Take `O=c1ccc2ccc(O)cc2o1` [Umbelliferone, 7-hydroxycoumarin]: the IC50 at SaOatA [1] (setting [10]) is 98.5 ± 1.1 µM; on SaOatA [4], greater than 3000 µM; against NgPatB [5], greater than 3000 µM; against NgPatB [6], 530 ± 70 µM.

With `O=c1ccc2ccccc2o1` [Coumarin, 1,2-benzopyrone], the activity at 10 µM on SaOatA [3] is 106%; at NgPatB [6] it was 82.5%.

`CCCCn1c(C)c2c(=O)n(-c3nc4ccccc4s3)[nH]c2cc1=O` [Compound 89224]: the “Effect on growth of E. coli” value in the series with E. coli BL21 was “did not affect the growth; also recorded: not affected”. For the same compound, in the series on E. coli BL21 (setting [11]), the “Effect on growth of E. coli” value is “unaffected”. In [2], this compound registered a solubility of roughly 177 µg/mL (≈ 499 µM). In addition, the activity at 10 µM on SaOatA [3] came out at 99.8%. Also, the “Reduction in growth of N. gonorrhoeae” value with N. gonorrhoeae FA1090 (177 µg/mL, OD 600 nm vs control lacking compound) is given as 90%. On NgPatB [6], the IC50 came out at 22.1 ± 1.2 µM, the affinity corresponds to a Ki of 126 ± 19 µM, the “Mode of inhibition of NgPatB” value is on record as “mixed/non-competitive inhibitor” and the activity at 10 µM came to 78.8%. Moreover, at NgPatB [6] (setting [11]), the “Mode of inhibition of NgPatB” value is given as “non-competitive inhibitor”.

By IC50 is commonly meant the concentration that gives 50% inhibition. By solubility is commonly meant the concentration that dissolves in the medium under given conditions. What is called Km is the substrate concentration at which the rate is half of its maximum. What is called MIC is the least concentration at which growth counts as inhibited. A word on the Ki: it is a dissociation constant, usually derived from enzyme kinetics or from competition with a known ligand. High values mean weaker binding, low ones tighter binding.
